Key:
[1] = test system: IL-2; assay: IL-2 mRNA expression in Jurkat cells by qRT-PCR, normalized with GAPDH; type: cell-based, human
Protocol: FIG. 1. Interferon gamma (IFN-γ) and interleukin (IL)-2 expression in human Jurkat cells following exposure to TRIP in vitro. Jurkat cells (2×10^6) were treated with different concentrations of TRIP as indicated for 24 hours. (A) IFN-γ and (B) IL-2 mRNA expression levels were detected by quantitative real-time polymerase chain reaction (qRT-PCR) and normalized with the expression of GAPDH. *p<0.05, **p<0.01, ***p<0.001.
FIG. 3. Effects of TRIP alone and in combination with trifluoperazine (TFP) or LY294002 (LY) on IFN-γ and IL-2 in human Jurkat cells in vitro. Jurkat cells (2×10^6) were pretreated with different concentrations of (A, B) TFP (0, 0.1, 1.0, 5.0, and 10.0 μM) and (C, D) LY294002 (0, 1, 5, 10, and 25 μM) for 1 hour, then incubated with medium containing 2.5 μM of TRIP for 24 hours. (A, C) IFN-γ and (B, D) IL-2 mRNA expression levels were detected by qRT-PCR and normalized with the expression of GAPDH. *p<0.05, **p<0.01, ***p<0.001.
FIG. 4. Effects of calmodulin, PI3K and MAPK inhibition on TRIP-induced expression of IFN-γ and IL-2 in human Jurkat cells in vitro. Jurkat cells (2×10^6) were pretreated with PD98059 (50 μM), TFP (10 μM) and LY294002 (25 μM) for 1 hour, then incubated with medium containing 2.5 μM of TRIP for 24 hours. (A) IFN-γ and (B) IL-2 mRNA expression levels were detected by qRT-PCR and normalized with the expression of GAPDH. **p<0.01, ***p<0.001, ****p<0.0001.
The potential immune regulating effects of TRIP and the possible mechanism(s) involved were determined with in vitro experiments examining the expression of T cell activating cytokines in human acute T cell leukemia Jurkat cells. The expression of IFN-γ and IL-2 RNA following exposure to increasing concentrations of TRIP (i.e., ospemifene) were first examined, followed by the effects of combining tamoxifen with TRIP on the expression of these cytokines. Different inhibitors of key T cell activation pathways—trifluoperazine (TFP), an inhibitor of calmodulin, LY294002, an inhibitor of PI3K, and PD98059, a MAPK inhibitor—in combination with TRIP were assessed for their effects on TRIP-induced expression of IFN-γ and IL-2 in Jurkat cells.
Jurkat cells (2.0×10^6) were treated with different concentrations of TRIP as indicated on the x-axis for 24 hours. (A) IFN-γ and (B) IL-2 mRNA expression levels were detected by quantitative real-time polymerase chain reaction (qRT-PCR) and normalized with the expression of GAPDH. *p<0.05, **p<0.01, ***p<0.001.
T cell activation requires multiple signals including PI3K, MAPK and calcium signaling pathways, and in order to identify the potential mechanism through which TRIP affects immune activation, Jurkat cells (2.0×10^6) were pretreated with different concentrations of TFP (0, 0.1, 1.0, 5.0 and 10.0 μM) (A, B) or LY294002 (0, 1, 5, 10 and 25 μM) (C, D) for one hour, then incubated with medium containing 2.5 μM TRIP for 24 hours. IFN-γ and IL-2 expression levels were detected by qRT-PCR and normalized with the expression of GAPDH. *p<0.05, **p<0.01, ***p<0.001.
Jurkat cells (2×10^6) were pretreated with PD98059 (50 μM), TFP (10 μM) or LY294002 (25 μM) for one hour, then incubated with medium containing 2.5 μM TRIP for 24 hours. (A) IFN-γ and (B) IL-2 mRNA expression levels were detected by qRT-PCR and normalized with expression of GAPDH. **p<0.01, ***p<0.001, ****p<0.0001.
The effects on T cell activation of different functional group substitutions on the TRIP chemical structure (Formula Ia) were examined by measuring the expression of IFN-γ and IL-2 RNA in human acute T cell leukemia Jurkat cells in vitro.
A strong increase is defined as a ≥50% increase compared to the control. A moderate increase is defined as a 25-49% increase compared to the control. A weak increase is defined as a 0-24% increase compared to the control. No effect is when there was no increase compared to the control.

[2] = test system: T-cell surface markers (CD4, CD8, PD-1, CD28); assay: Experiment 5: T-cell surface markers of spleen lymphocytes by flow cytometry; type: in vivo, human MUC1.Tg C57BL/6 mice; conditions: TRIP 100 mg/kg or letrozole 0.8 mg/kg daily oral 14 days
Protocol: FIG. 11. Lymphocyte phenotypes following different hormonal treatments. (A) CD3+CD4+; (B) CD3+CD8+; (C) CD3+CD28+; (D) CD8+CD28+; (E) CD3+PD-1+; and (F) CD8+PD-1+; T cell surface markers were stained with indicated antibodies after […] of TRIP (100 mg/kg), estradiol (E2; 25 μg/kg), and letrozole (0.8 mg/kg) treatments (n=8 all groups).
A total of 32 female human MUC1.Tg C57BL/6 mice, starting at approximately six weeks of age, were treated with urethane as described (Wurz G T. et al., J. Transl. Med., 11:64 (2013)). Two weeks following the final dose of urethane (Week 17), the mice were randomized into four treatment groups of approximately equal average weight (n=8, all groups): Control (no treatment); TRIP (i.e., ospemifene) 100 mg/kg; estradiol 25 μg/kg; and letrozole 0.8 mg/kg. TRIP and letrozole were prepared in DMSO and peanut oil as described above in Experiment 2 and administered daily for 14 days by oral gavage (100 μL). Estradiol was dissolved in 100% ethanol, diluted in PBS to achieve the desired concentration, and then administered daily for 14 days by s.c. injection at rotating sites using a 25-gauge needle. In Week 19, the study was terminated, 24 hours after the last treatments, and serum and spleens were collected for surface marker and Treg analyses.
After two weeks of treatment, lymphocytes were isolated from spleen. T-cell surface markers (CD4, CD8, PD-1, CD28) and regulatory T cells (Tregs) were analyzed by flow cytometry.

## OCCOc1ccc(/C(=C(/CCCl)c2ccccc2)c2ccccc2)cc1 [TRIP, Z-2-[4-(4-chloro-1,2-diphenyl-but-1-enyl)-phenoxy]ethanol]
[1]; Jurkat cells, different concentrations of TRIP, 24 hours, dose-dependent (FIG. 1B)
  IL-2 RNA expression compared to control: significantly induced
[1]; mRNA in Jurkat cells in vitro, relative to control sample without TRIP compound
  IL-2 Expression: +++ (strong increase)
[2]
  expression of surface markers, including CD8 and CD28, vs control: no difference
